# Measurements published in patent US20090136470A1, “REGULATORY T CELLS AND METHODS OF MAKING AND USING SAME” (priority 2007, published 2009).
# Read-outs that look alike come from different tables or passages of the source.
# How the values were obtained:
# [1] = tested on: CD4^+CD25^− spleen T cells; test: Th-17 differentiation of CD4 T cells stimulated with dendritic cells or spleen APCs plus TGF-β and IL-6 (intracellular IL-17 staining, IL-17 ELISA); assay type: cell-based, mouse
# Experimental: (§1) For CD4^+CD25^− T cell isolation, spleens were removed, teased into cell-single suspensions and filtered through a 70 μm cell strainer (Fisher Scientific, USA). CD4^+CD25^−T cells were isolated by negative selection after incubation with a mix of specific biotin-conjugated mAbs (anti-CD8, CD11b, CD11ε, CD25, CD45R (B220), NK1.1, and TER119) at 1/200 dilution, and anti-biotin magnetic microbeads (25-40 μl per spleen) (Miltenyi Biotec, USA).
# (§2) For dendritic cells isolation, spleen and MLN were chopped and digested by collagenase type D (Roche, USA) for 30 min at room temperature. Digested tissues were treated with 5 mM of EDTA for additional 5 min and mashed through a 70 μm cell strainer. Subsequently, CD11c^+ cells were enriched by positive selection using anti-CD11c microbeads according to the manufacturer's protocol (Miltenyi Biotec, USA). Enriched populations were stained with CD45-APC, CD 11c-PE, I-A^b-FITC and TCR β and sorted for TCRβ^−CD45^+CD11c^+I-Ab^+ by flow cytometry using a FACS-DIVA cell sorter (USA).
# (§3) The culture medium used for dendritic cell-T cell cultures was Iscove's modified Dulbecco medium (IMDM) (Gibco, USA) supplemented with 10% heat-inactivated FCS, 2 mM L-glutamine, 100 U/ml penicillin, 100 μg/ml streptomycin, and 5 mM β-mercaptoethanol (all Sigma, USA). […] For dendritic cell-T cell cultures, 2×10^4 dendritic cells and 1×10^5 T cells were cultured in a volume of 200 μl (96-well plates). For irradiated APC-T cell cultures, 5×10^5 APCs and 1×10^5 T cells were cultured in a volume of 200 μl in 96-well plates (2×10^6 APCs and 0.5×10^6 T cells per well in 48-well plates). […] For the study shown in FIG. 4A, after sorting of naive CD4^+ cells (CD25^−CD44^lowCD62L^+), cells were washed twice in PBS+0.1% BSA, counted and labeled with 2 μM of CFSE (Carboxyfluorescein diacetate, succinimidyl ester) (Molecular Probes, USA) at a concentration of 5−10×10^6 cells per ml in PBS-0.1% BSA.
# To block non-specific staining, the 2.4G2 anti-CD16/32 antibody was added.
# CD4^+CD25^−T cells [2] = test: TGF-β-dependent Foxp3 induction (Treg differentiation) in CD4 T cells with dendritic cells or APCs; assay type: cell-based, mouse; details: OT-II CD4 cells, OVAp, TGF-β1; LE135 1 μM, RA 100 nM
# Experimental: as §1, §2, §3
# For Foxp3 staining, no stimulation with PMA/Ionomycin was performed, with the exceptions of FIGS. 8B and 9A. […]
# [3] = tested on: CD4 cells cultured with MLN DCs (MDC) or splenic DCs (SDC); test: Retinal (RAL): TGF-β mediated Foxp3 induction (Treg differentiation) in DC/T cell co-cultures; assay type: cell-based
# [4] = tested on: CD4^+T cells from small intestine lamina propria and spleen; test: Oral Listeria monocytogenes infection (and naïve mice) treated with RA or LE540: IL-17^+ and Foxp3^+ CD4 T cells; assay type: in vivo, mouse
# Description: Listeria monocytogenes (strain WT LMOVA) was used. Mice were orally infected (gavage) with 5×10^8 CFU of L. monocytogenes. Mice received i.p. injections of vehicle, RA or LE540 on the same day and 2 days after infection. Mice were sacrificed 5 days post-infection for analysis.
# Every second day, in a interval of two weeks, naïve mice received gavage of either vehicle, RA or LE540.
# Liver lymphocytes were isolated using 37.5% isotonic Percoll (GE Healthcare, USA), as previously described [Y. Kinjo et al, Nat Immunol 7, 978 (2006)]. Intestinal lymphocytes were isolated and prepared as previously described [Aranda et al., J Immunol 158, 3464 (1997)]. Briefly, small and large intestines were removed and placed in chilled HBSS media containing 5% FCS. The intestines were carefully cleaned from the mesentery and flushed of fecal content. Intestines were opened longitudinally and then cut into 1 cm pieces. The intestinal tissue was transferred to a 250-ml Erlenmeyer flasks containing 25 ml of preheated HBSS complemented with 2% FCS and 1 mM DTT (Sigma, USA) and shaken at 200 rpm for 40 min at 37° C. The tissue suspension was passed through a stainless steel sieve into 50-ml conical tubes and the cells were pelleted by centrifugation at 1200 rpm for 10 min at 4° C. The cell pellet was resuspended in complete HBSS, layered over a discontinuous 40/70% Percoll gradient, and centrifuged at 2000 rpm for 30 min. Cells from the 40/70% interface were collected, washed and resuspended in complete RPMI media. These purified cells constituted the intraepithelial lymphocyte (IEL) population. To isolate the lamina propria lymphocytes (LPL), the remaining intestinal tissue in the stainless steel sieve was minced and transferred to conical tubes. The minced pieces were resuspended in 20 ml of complete RPMI containing 1 mg/ml of collagenase (Sigma, USA) and shaken at 200 rpm for 40 min at 37° C. The tissue suspension was collected and passed through a 70 μm cell strainer and the cells were pelleted by centrifugation at 1200 rpm. The cells were then resuspended and layered onto a 40/70% Percoll gradient, centrifugated and processed as described above for the IEL preparation.
# (§4) To block non-specific staining, the 2.4G2 anti-CD16/32 antibody was added. […] For intracellular cytokine staining, cells obtained from in vitro cultures or isolated IELs were incubated for 4-5 hours with 50 ng/ml PMA, 750 ng/ml Ionomycin (both Sigma, USA) and 10 μg/ml Brefeldin A (Invitrogen, USA) in a tissue culture incubator at 37° C.
# For Foxp3 staining, no stimulation with PMA/Ionomycin was performed, with the exceptions of FIGS. 8B and 9A. In these cases, the time of incubation with PMA/Ion was reduced to 3.5 hours. Intracellular Foxp3 staining was performed as per the eBioscience's Foxp3-staining kit protocol.
# PPAR-γ = target: T1, PPAR-γ (Homo sapiens, UniProt P37231); details: cited from earlier work
# T1 sequence (P37231 1-505): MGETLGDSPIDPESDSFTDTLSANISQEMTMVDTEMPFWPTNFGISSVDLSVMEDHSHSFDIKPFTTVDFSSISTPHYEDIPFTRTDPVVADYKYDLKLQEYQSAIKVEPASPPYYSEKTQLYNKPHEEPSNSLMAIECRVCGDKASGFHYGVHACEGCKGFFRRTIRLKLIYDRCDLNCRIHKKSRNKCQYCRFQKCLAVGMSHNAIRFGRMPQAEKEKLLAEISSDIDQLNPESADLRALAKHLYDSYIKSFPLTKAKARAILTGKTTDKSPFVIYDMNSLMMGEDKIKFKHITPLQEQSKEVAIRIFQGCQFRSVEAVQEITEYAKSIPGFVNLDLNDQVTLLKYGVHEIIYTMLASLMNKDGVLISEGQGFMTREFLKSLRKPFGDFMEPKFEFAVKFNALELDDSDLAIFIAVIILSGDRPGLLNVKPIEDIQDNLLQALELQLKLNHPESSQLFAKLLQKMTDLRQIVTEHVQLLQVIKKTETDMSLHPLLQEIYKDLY
# RAR = details: cited from earlier work
# RXR = details: cited from earlier work
# [5] = tested on: retinoic-acid orphan receptor RORg-t; test: Retinal (RAL): RORg-t in APC-free system; assay type: cell-based
# [6] = tested on: CD4 cells cultured with either MLN DCs (MDC) or splenic DCs (SDC); test: Retinal (RAL): TH-17 differentiation and IL-17 production in DC/T cell co-cultures; assay type: cell-based
# CD4^+CD25^−T cells [7] = test: CTLA-4, CD103, CCR9 and CD25 staining of CD4 T cells stimulated with spleen APCs plus TGF-β1 and/or RA; assay type: cell-based, mouse; details: TGF-β1 added to RA
# Experimental: as §1
# APCs were isolated from spleen of C57BL/6 mice by negative selection using CD90.2 (Thy1.2) magnetic microbeads to deplete T cells (Miltenyi Biotec).
# as §3, §4
compound,measurement,setting,value
"CC1=C(/C=C/C(C)=C\C=C\C(C)=C\C(=O)O)C(C)(C)CCC1 [9-cis RA, 9-cis retinoic acid]",Th-17 differentiation by spleen dendritic cells,"[1]; added to cultures with TGF-β and IL-6, 100 nM",also inhibited the Th-17 differentiation by spleen dendritic cells
CN1c2cc3c(cc2N=C(c2ccc(C(=O)O)cc2)c2ccccc21)C(C)(C)CCC3(C)C [LE135],TGF-β-dependent Foxp3 induction by MLN dendritic cells,CD4^+CD25^−T cells [2],reduced
same,relative inefficiency of MLN dendritic cells to mediate Th-17 differentiation,"[1]; RAR antagonist included during activation under Th-17 conditions, 1 μM",reversed
same,effect of RAR antagonist on RAL-increased Foxp3 induction,[3]; LE135 added with RAL,reversed Foxp3 induction
CN1c2cc3c(cc2N=C(c2ccc(C(=O)O)cc2)c2ccc4ccccc4c21)C(C)(C)CCC3(C)C [LE540],"Th-17 mucosal T cells (IL-17 staining of CD4^+T cells, small intestine lamina propria)","[4]; 5 days after oral L. monocytogenes infection, i.p. days 0 and 2, RA 300 μg/mouse, LE540 100 μg/mouse",no apparent difference compared to the controls
same,differentiation / number of mucosal Foxp3^+Treg cells (small intestine lamina propria),"[4]; Lm challenged mice, 5 days after oral infection",significantly reduce
same,spleen Foxp3^+CD4 cells,[4]; Lm infected mice (2 i.p. injections) and naïve mice (2-week gavage),No effect
"CC1=C(/C=C/C(C)=C/C=C/C(C)=C/C=O)C(C)(C)CCC1 [RAL, retinal]",binding to PPAR-γ,PPAR-γ,shown to bind
same,binding to RAR,RAR,does not bind
same,binding to RXR,RXR,shown to bind
same,RORg-t,[5],inhibited
same,TGF-β mediated Foxp3 induction / Treg differentiation,[3],enhance TGF-β mediated Foxp3 induction
same,"increased induction of Foxp3, MDC versus SDC cultures",[3]; DC/T cell co-cultures,observed mainly in MDC cultures
same,TGF-β mediated Foxp3 induction / Treg differentiation,[3]; listed as retinal,enhances Treg differentiation
same,TH-17 differentiation,[6],able to inhibit TH-17 differentiation
same,IL-17 production from CD4 cells,[6]; cultured with either MLN DCs (MDC) or splenic DCs (SDC),suppresses IL-17 production
same,TH-17 differentiation,[6]; listed as retinal,suppressor of TH-17 differentiation
CC(C)=CCCC(C)=CC=O [citral],effect of RALDH inhibition on RAL effects on TH-17 differentiation,[6]; citral added with RAL,does not reverse RAL effects
"TGF-β: cytokine, transforming growth factor-beta, exogenous, 5 ng/ml (R&D Systems)",RA-induced CCR9 expression,CD4^+CD25^−T cells [7],partially antagonized
